Test results reported in patent publication US20220160703A1, “TUMOR-SELECTIVE COMBINATION THERAPY” (The Board of Regents of The University of Texas System, priority 2019, published 2022).

Assays:
[1] = test system: B16 tumors; test: B16 (NQO1 null or NQO1 overexpressing) tumor model; assay type: in vivo, mice
[2] = test system: tumor specific T cells; test: IFNγ ELISPOT / CBA tumor-specific T cell response; assay type: in vivo, mice
Method: FIGS. 3A-E. Batf3-dependent dendritic cell-mediated T cell cross-priming is required for the antitumor effect of β-lap. […] IFNγ producing cells were determined by ELISPOT assay. […] (FIG. 3D) MC38 cells were subcutaneously transplanted into C57BL/6 WT (n=5/group) and Batf3^-/- mice (n=5/group for Batf3^-/- vehicle; n=6/group for Batf3^-/- β-lap), respectively. Tumor bearing mice were treated with β-lap (0.3 mg, i.t.) every other day for four times. Tumor growth was monitored twice a week. (FIG. 3E) MC38-OVA bearing mice (n=3/group) were treated with β-lap (0.3 mg, i.t.) for one time, and 4 days later, CD11c^+ dendritic cells were purified from the tumor drain lymph node, and cocultured with CD8 T cells isolated from the spleen of OT-1 transgenic mice. The activity of cross-priming of T cells was determined by the level of cell-secreted IFNγ via Cytometric Bead Array (CBA) mouse IFNγ assay. Data are shown as mean±SEM from three independent experiments. **P<0.01, ***P<0.001, ****P<0.0001 determined by unpaired student t-test (FIGS. 3A, 3B and 3E) or two-way ANOVA (FIGS. 3C and 3D). FIGS. 4A-F. Type I IFNs and TLR4/MyD88/signaling is required for the antitumor effect of β-lap and tumor specific CTLs. (FIG. 4A) MC38 tumor bearing C57BL/6 mice (n=5/group) were treated with β-lap (0.3 mg, i.t.) every other day for four times. Anti-IFNAR blocking antibodies (150 μg, i.t.) were administrated every four days for three times during the treatment. (FIG. 4B) The MC38 tumor bearing WT (n=5/group) and […]=4/group) C57BL/6 mice were treated with β-lap (0.3 mg, i.t.) every other day for four times. (FIG. 4C) MC38 tumor bearing WT (n=5/group) and Myd88^-/- (n=3/group) C57BL/6 mice were treated with β-lap (0.3 mg, i.t.) every other day for four times. (FIG. 4D) MC38 tumor bearing WT (n=5/group) and Tlr4^-/- (n=4/group) C57BL/6 mice were treated with β-lap (0.3 mg, i.t.) every other day for four times). (FIG. 4E) MC38 tumor bearing C57BL/6 mice (n=5/group) were treated with β-lap (0.3 mg, i.t.) every other day for four times. Anti-HMGB1 neutralized antibodies (200 μg, i.p) were administrated every three days for three times during the treatment. Tumor growth was monitored twice a week. (FIG. 4F) MC38 tumor bearing WT (n=4/group) or Tlr4^-/- (n=4/group) or MyD88-/- (n=6/group) C57BL/6 mice were treated with β-lap (0.3 mg, i.t.) every other day for four times. Anti-HMGB1 neutralized antibodies (200 μg, i.p) were administrated every three days for three times during the treatment. 12 days after the initial treatment, lymphocytes from the TdLN were isolated and stimulated with MC38 tumor cells irradiated with 60 Gy. IFNγ producing cells were determined by ELISPOTs assay. Data are shown as mean±SEM from two to three independent experiments. *P<0.05, **P<0.01, ***P<0.001, ****P<0.0001 determined by two-way ANOVA. […] (FIG. 6A) Treatment schema for local β-lap treatment based combinative therapy in FIG. 6B and FIG. 6C. (FIGS. 6B-C) MC38 tumor cells were s.c. inoculated into the flank of C57BL/6 mice (n=5/group). […] Tumor growth was monitored twice a week, and numbers of tumor free mice after treatment were shown. […] Tumor growth was monitored twice a week, and numbers of tumor free mice after treatment were shown. […] 12 days after first treatment, tumor infiltrating CD45^+ cells and lymphocytes were analyzed by flow cytometry (FIG. 6G), and OT-1 antigen specific T cells in the spleen were determined by IFNγ ELISPOT assay (FIG. 6H). […]

CC1(C)CCC2=C(O1)c1ccccc1C(=O)C2=O [β-lap, β-lapachone]
tumor response ([1]; NQO1null parental B16, β-lap 0.3 mg i.t. four times): didn't response
tumor response ([1]; NQO1 overexpressing B16 clone #1 and #4, β-lap 0.3 mg i.t. four times): dramatic tumor suppression
TGI ([1]; NQO1 overexpressing B16 tumors (about 100 mm^3), β-lap 0.3 mg i.t. four times, anti-PD-L1 150 μg i.p. three times): 68.67%
IFNγ-producing T cells ([2]; MC38, splenocytes 10 days after first β-lap, irradiated tumor cells): dramatically increased
OT1 antigen specific T cells in tumor tissues and spleen ([2]; MC38-OVA, 12 days after initial treatment): neither β-lap or anti-PD-L1 monotherapy increased
numbers of OTI specific T cells in spleen ([2]; MC38-OVA, OTI peptide stimulation): much higher
IFNγ production by OTI T cells primed by TdLN DCs ([2]; MC38-OVA, β-lap 0.3 mg i.t. once, DCs 4 days later, CBA): more IFNγ production
tumor-reactive T cells in TdLN ([2]; WT mice, MC38, 12 days after initial treatment): increased the number of tumor-reactive T cells
